Earlier results on two compounds are cited in patent US20170189347A1, “TRANSDERMAL DELIVERY SYSTEM” (priority 2014, published 2017).

One data set has as its target MAO-A (Homo sapiens, UniProt P21397). Particulars: in humans.
In a further data set the target is MAO-B (Homo sapiens, UniProt P27338). As to conditions: in humans.
Experiment in data set [1]: not given
This is another data set of the same source.

Chain of MAO-B (P27338 whole entry): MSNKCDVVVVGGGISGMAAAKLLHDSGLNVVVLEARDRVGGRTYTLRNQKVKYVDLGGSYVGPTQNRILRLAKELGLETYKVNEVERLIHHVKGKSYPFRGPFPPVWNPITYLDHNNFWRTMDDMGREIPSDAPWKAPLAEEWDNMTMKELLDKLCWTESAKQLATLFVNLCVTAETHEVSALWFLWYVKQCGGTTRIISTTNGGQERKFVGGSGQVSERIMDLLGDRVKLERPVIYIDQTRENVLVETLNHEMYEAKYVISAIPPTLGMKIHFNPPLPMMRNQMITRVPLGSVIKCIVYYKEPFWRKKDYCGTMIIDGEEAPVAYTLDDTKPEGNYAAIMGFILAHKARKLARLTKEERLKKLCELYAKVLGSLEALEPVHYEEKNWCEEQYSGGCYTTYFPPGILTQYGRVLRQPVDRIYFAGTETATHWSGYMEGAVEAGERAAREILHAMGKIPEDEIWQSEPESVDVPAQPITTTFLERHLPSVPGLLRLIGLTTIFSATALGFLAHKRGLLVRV
Chain of MAO-A (P21397 whole entry): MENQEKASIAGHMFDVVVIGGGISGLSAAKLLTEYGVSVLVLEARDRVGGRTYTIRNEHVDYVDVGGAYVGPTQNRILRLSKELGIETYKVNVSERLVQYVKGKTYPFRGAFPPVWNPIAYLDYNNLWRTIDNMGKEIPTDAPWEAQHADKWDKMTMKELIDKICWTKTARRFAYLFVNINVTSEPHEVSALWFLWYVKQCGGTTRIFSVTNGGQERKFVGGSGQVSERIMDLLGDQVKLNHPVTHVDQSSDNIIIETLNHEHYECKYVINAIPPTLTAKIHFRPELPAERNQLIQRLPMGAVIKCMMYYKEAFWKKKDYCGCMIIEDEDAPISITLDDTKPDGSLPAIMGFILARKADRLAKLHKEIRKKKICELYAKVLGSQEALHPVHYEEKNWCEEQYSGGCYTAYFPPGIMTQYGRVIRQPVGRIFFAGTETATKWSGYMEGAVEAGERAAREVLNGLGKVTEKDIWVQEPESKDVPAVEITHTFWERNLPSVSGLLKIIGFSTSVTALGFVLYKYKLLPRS

Take `C#CCN(C)[C@H](C)Cc1ccccc1` [selegiline]: the solubility in water is 0.025 grams of drug per liter of water.

For `C#CCN[C@@H]1CCc2ccccc21` [rasagiline, (1R)-N-(prop-2-yn-1-yl)-2,3-dihydro-1H-inden-1-amine], the solubility in water was 0.025 grams of drug per liter of water. Besides, on MAO-A, the “inhibition of MAO-A” value is reported as “not to inhibit MAO-A”. For the same compound, on MAO-B, the “inhibition of MAO-B” value is “selectively inhibit MAO-B”. Also, the “solubility in non-crosslinked acrylic copolymer PSA DT 87-4098” value in data set [1] (DT 87-4098) is recorded as 54 wt %. In addition, the “solubility in non-crosslinked acrylic copolymer PSA DT 87-9088” value in data set [1] (DT 87-9088) is 111 wt %. Further, the “solubility in non-crosslinked acrylic copolymer PSA DT 87-9301” value in data set [1] (DT 87-9301) is 78 wt %. Further, the “solubility in polyisobutylene (PIB) PSA” value in data set [1] (PIB) is reported as “about 8 wt %”. Besides, in data set [1] (silicone PSA), the “solubility in silicone PSA” value is about 6 wt %.
